The record followed here is patent US9765075B2, “Substituted bridged urea analogs as sirtuin modulators” (GLAXOSMITHKLINE LLC, priority 2013, dated 2017).

SMILES strings stand for the structures. Like-named read-outs stand apart in the source and are kept apart here.

In the test the target is T1, SIRT1 (Homo sapiens, UniProt Q96EB6).
T1 sequence (Q96EB6 1-747): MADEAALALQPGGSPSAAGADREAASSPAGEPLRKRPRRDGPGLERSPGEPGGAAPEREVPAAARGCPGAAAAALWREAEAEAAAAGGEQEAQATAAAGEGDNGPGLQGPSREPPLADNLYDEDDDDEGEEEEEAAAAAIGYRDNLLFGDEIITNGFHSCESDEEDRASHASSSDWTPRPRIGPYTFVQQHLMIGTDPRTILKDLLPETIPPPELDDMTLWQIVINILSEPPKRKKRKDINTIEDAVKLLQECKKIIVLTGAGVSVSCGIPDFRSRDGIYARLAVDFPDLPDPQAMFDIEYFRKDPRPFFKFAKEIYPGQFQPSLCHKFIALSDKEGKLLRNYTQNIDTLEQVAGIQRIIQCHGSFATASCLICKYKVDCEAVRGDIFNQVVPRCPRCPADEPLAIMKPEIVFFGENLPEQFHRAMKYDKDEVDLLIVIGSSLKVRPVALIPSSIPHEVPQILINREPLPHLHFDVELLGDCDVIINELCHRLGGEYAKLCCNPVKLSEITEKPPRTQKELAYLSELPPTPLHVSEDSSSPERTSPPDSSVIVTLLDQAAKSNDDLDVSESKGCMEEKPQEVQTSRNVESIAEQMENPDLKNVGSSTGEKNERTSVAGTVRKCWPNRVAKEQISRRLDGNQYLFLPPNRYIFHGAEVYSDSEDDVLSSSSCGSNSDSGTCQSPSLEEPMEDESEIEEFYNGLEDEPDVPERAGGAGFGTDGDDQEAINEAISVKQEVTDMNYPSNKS
As to the kind of experiment: Trp mass spectrometry assay (SIRT1 activation). It is filed as biochemical. As to conditions: for Emax: percent maximum fold activation of SIRT1, read-out: Tryp % Fold Act. The text has this:
Mass spectrometry based assays were used to identify modulators of SIRT1 activity. […] The peptide was labeled with the fluorophore 5TMR (excitation 540 nm/emission 580 nm) at the C-terminus. The sequence of the peptide substrate was based on p53 with several modifications. In addition, the methionine residue naturally present in the sequence was replaced with the norleucine because the methionine may be susceptible to oxidation during synthesis and purification. The Trp based assay utilized a peptide having an amino acid residues as follows: Ac-R-H-K-K(Ac)-W-NH2 (SEQ ID NO: 2).
The Trp mass spectrometry assay was conducted as follows. 0.5 μM peptide substrate and 120 μM βNAD^+ were incubated with 10 nM SIRT1 for 25 minutes at 25° C. in a reaction buffer (50 mM HEPES pH 7.5, […] NaCl, 1 mM DTT, 0.05% BSA). The SIRT1 protein was obtained by cloning the SirT1 gene into a T7-promoter containing vector, which was then expressed in BL21(DE3) bacterial cells and purified as described in further detail below. Test compound was added at varying concentrations to this reaction mixture and the resulting reactions were monitored. After the 25 minute incubation with SIRT1, 10 μL of 10% formic acid was added to stop the reaction. The resulting reactions were sealed and frozen for later mass spec analysis. The relative SIRT1 activity was then determined by measuring the amount of 0-acetyl-ADP-ribose (OAADPR) formed (or, alternatively, the amount of deacetylated Trp peptide generated) by the NAD-dependent sirtuin deacetylation reaction in the presence of varying concentrations of the test compound versus control reactions lacking the test compound. The degree to which the test agent activated deacetylation by SIRT1 was expressed as EC1.5 (i.e., the concentration of compound required to increase SIRT1 activity by 50% over the control lacking test compound), and Percent Maximum Activation (i.e., the maximum activity relative to control (100%) obtained for the test compound).
A control for activation of sirtuin activity was conducted using 10 nM of sirtuin protein, with 1 μL of DMSO in place of compound, to determine the amount of deacetylation of the substrate at a given time point within the linear range of the assay. This time point was the same as that used for test compounds and, within the linear range, the endpoint represents a change in velocity.
For the above assay, SIRT1 protein was expressed and purified as follows. The SirT1 gene was cloned into a T7-promoter containing vector and transformed into BL21(DE3). The protein was expressed by induction with 1 mM IPTG as an N-terminal His-tag fusion protein at 18° C. overnight and harvested at 30,000×g. Cells were lysed with lysozyme in lysis buffer (50 mM Tris-HCl, 2 mM Tris[2-carboxyethyl] phosphine (TCEP), 10 μM ZnCl2, 200 mM NaCl) and further treated with sonication for 10 min for complete lysis. The protein was purified over a Ni-NTA column (Amersham) and fractions containing pure protein were pooled, concentrated and run over a sizing column (Sephadex S200 26/60 global). The peak containing soluble protein was collected and run on an Ion-exchange column (MonoQ). Gradient elution (200 mM-500 mM NaCl) yielded pure protein. This protein was concentrated and dialyzed against dialysis buffer (20 mM Iris-HCl, 2 mM TCEP) overnight. The protein was aliquoted and frozen at −80° C. until further use.

Setting [1] is: concentration of test compound that results in 150% activation of SIRT1, Trp peptide substrate.
Where [2] appears, read: Trp mass spectrometry assay, EC1.5 = concentration giving 150% activation of SIRT1.
The mark [3] stands for this setting: Trp mass spectrometry assay, EC1.5 = concentration of test compound that results in 150% activation of SIRT1.

For `O=C(Nc1cnccn1)N1c2nc(-c3cncc(F)c3)ccc2N2CCC1CC2` [Example 555], under setting [1], the “Tryp AVG EC1.5 (μM)” value is given as “B (EC1.5 1-25 μM)”. The Emax (Trp peptide substrate) was ≥ 150%.
In the same order, the values of `O=C(Nc1cncc(F)c1)N1c2nc(-c3cccc(N4CCOCC4)c3)ccc2N2CCC[C@H]1C2` [Example 559] are “A (EC1.5<1 μM)” and ≥ 150%.
In the same order, the values of `O=C(Nc1ccccn1)N1c2nc(-c3ccc(-c4nnn[nH]4)cc3)ccc2N2CC[C@H]1C2` [Example 347] are “A (EC1.5<1 μM)” and ≥ 150%.
`C#CCNc1nccc(NC(=O)N2c3nc(-c4cccc(C5(C(F)(F)F)N=N5)c4)ccc3N3CC[C@H]2C3)n1` [Example 809]: the “Tryp AVG EC1.5 (μM)” value under setting [2] was “B (EC1.5 1-25 μM)”. For the same molecule, the Emax (Trp mass spectrometry assay) was ≥ 150%.
As to `O=C(Nc1cccnc1)N1c2nc(-c3cncc(Cl)c3)ccc2N2CC[C@H]1C2` [Example 526], under setting [1], the “Tryp AVG EC1.5 (μM)” value is “A (EC1.5<1 μM)”. The Emax (Trp peptide substrate) was ≥ 150%.
For `O=C(Nc1cccnc1)N1c2nc(N3CCCC(C(F)(F)F)C3)ccc2N2CC[C@H]1C2` (stereo partly drawn) [Example 229], under setting [1], the “Tryp AVG EC1.5 (μM)” value is “B (EC1.5 1-25 μM)”. The Emax (Trp peptide substrate) was ≥ 150%.
As to `O=C(Nc1ccc(F)cn1)N1c2nc(-c3ccnc(N4CCC(C(F)(F)F)C4)c3)ccc2N2CC[C@H]1C2` (stereo partly drawn) [Example 391], under setting [1], the “Tryp AVG EC1.5 (μM)” value was “A (EC1.5<1 μM)”. In addition, for the setting “Trp peptide substrate”, the Emax was ≥ 150%.
For `O=C(Nc1ccncc1F)N1c2nc(-c3cccc(F)c3)ccc2N2CC[C@H]1C2` [Example 74], the Emax (Trp mass spectrometry assay) is ≥ 150%.
Regarding `O=C(Nc1cccc(-c2cnco2)c1)N1c2nc(-c3cccc(Cl)c3)ccc2N2C[C@@H](O)[C@H]1C2` [Example 683], the “Tryp AVG EC1.5 (μM)” value under setting [2] was “A (EC1.5<1 μM)”. Further, the Emax (Trp mass spectrometry assay) was ≥ 150%.
Take `Cc1cc(-c2ccc3c(n2)N(C(=O)Nc2ccc(F)cn2)[C@H]2CCN3C2)ccn1` [Example 223]: under setting [1], the “Tryp AVG EC1.5 (μM)” value is on record as “A (EC1.5<1 μM)”. For the same molecule, the Emax (Trp peptide substrate) was ≥ 150%.
In the same order, the values of `O=C(Nc1ccccn1)N1c2nc(-c3cncc(F)c3)ccc2N2CCC[C@H]1C2` [Example 470] are “A (EC1.5<1 μM)” and ≥ 150%.
In the same order, the values of `O=C(Nc1ccnc(Br)c1)N1c2nc(-c3cccc(C(F)(F)F)c3)ccc2N2CC[C@H]1C2` [Example 541] are “A (EC1.5<1 μM)” and ≥ 150%.
On to `O=C(Nc1nc2ccccc2s1)N1c2nc(-c3cccc(C(F)(F)F)c3)ccc2N2CC[C@H]1C2` [Example 90], for which the “Tryp AVG EC1.5 (μM)” value under setting [3] is given as “A (EC1.5<1 μM)”. The Emax (Trp mass spectrometry assay) is ≥ 150%.
As for `O=C(Nc1ccccn1)N1c2nc(Cl)ccc2N2CC[C@H]1C2` [Example 258], the “Tryp AVG EC1.5 (μM)” value under setting [1] is recorded as “C (EC1.5>25 μM)”. Further, where the note is “Trp peptide substrate”, the Emax is ≥ 150%.
`C#CCNc1nccc(NC(=O)N2c3nc(-c4ccc(C5(C(F)(F)F)N=N5)cc4)ccc3N3CC[C@H]2C3)n1` [Example 805]: the “Tryp AVG EC1.5 (μM)” value under setting [2] is “B (EC1.5 1-25 μM)”. Moreover, the Emax (Trp mass spectrometry assay) is ≥ 150%.
As for `O=C(Nc1ccncc1)N1c2nc(N3CCCC(C(F)(F)F)C3)ccc2N2CCC[C@H]1C2` (stereo partly drawn) [Example 360], the “Tryp AVG EC1.5 (μM)” value under setting [1] is “A (EC1.5<1 μM)”. For the same molecule, the Emax (Trp peptide substrate) was ≥ 150%.
In the same order, the values of `O=C(Nc1ccc(F)cn1)N1c2nc(-c3cccc(N4CCC(F)(F)C4)c3)ccc2N2CC[C@H]1C2` [Example 257] are “B (EC1.5 1-25 μM)” and ≥ 150%.
In the same order, the values of `COc1cc(NC(=O)N2c3nc(-c4ccnc(F)c4)ccc3N3CC[C@H]2C3)ncn1` [Example 358] are “C (EC1.5>25 μM)” and < 150%.
On to `O=C(Nc1ccncc1F)N1c2nc(-c3cccc(OC(F)(F)F)c3)ccc2N2CC[C@H]1C2` [Example 153], for which the “Tryp AVG EC1.5 (μM)” value under setting [3] is “A (EC1.5<1 μM)”. In addition, the Emax (Trp mass spectrometry assay) is ≥ 150%.
With `CN(C(=O)N1c2nc(-c3cccc(C(F)(F)F)c3)ccc2N2CC[C@H]1C2)c1ccccn1` [Example 200], the “Tryp AVG EC1.5 (μM)” value under setting [3] is “C (EC1.5>25 μM)”. The Emax (Trp mass spectrometry assay) is < 150%.
